Measured values from publication PMC12669278, “VDAC1-interacting proteins: binding site mapping and their derived peptides induce apoptosis and multifaceted cellular effects” (Apoptosis, 2025).
No end group written: not given here.

biological target: T1, purified VDAC1 (Homo sapiens, UniProt P21796); experiment: Glass-bound peptide array probed with purified VDAC1 and anti-VDAC1 antibodies; format: binding; set-up: key: +: low; ++: medium; +++: high; details: glass-bound peptide array incubated 4 h with purified VDAC1 (64 nM); antibody against VDAC1 N-terminus; chemiluminescence
T1 sequence (P21796 whole entry, species assumed): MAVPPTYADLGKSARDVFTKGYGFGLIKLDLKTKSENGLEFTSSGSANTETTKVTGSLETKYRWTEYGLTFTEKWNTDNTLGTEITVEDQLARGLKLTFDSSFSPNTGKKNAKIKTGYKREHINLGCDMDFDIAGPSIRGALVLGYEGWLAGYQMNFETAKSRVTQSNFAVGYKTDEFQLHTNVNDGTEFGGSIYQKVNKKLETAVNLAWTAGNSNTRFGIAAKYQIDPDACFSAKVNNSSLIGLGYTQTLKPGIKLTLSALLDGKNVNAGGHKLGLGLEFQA
Description: A customized peptide array was produced by INTAVIS Peptide Services (GmbH & Co. KG, Tübingen, Germany). It comprised 768 peptide sequences derived from 19 VDAC1-interacting proteins that were arrayed on a glass slide. Each peptide was composed of 25 amino acids with an overlap of 15 amino acids with the peptides before and following it.
The interaction of purified VDAC1 with glass-bound peptide arrays was assessed by washing the slide three times, 10 min each, with TBST (150 mM NaCl, 50 mM Tris/HCl, pH 7.4, 0.1% Tween-20), followed by overnight incubation with blocking buffer (TBS, pH 7.8, containing low-fat dry milk, 2.5%, w/v) at 4 °C. Then slides were incubated with purified VDAC1 in protein-interacting buffer (20 mM HEPES, 100 mM KCl, pH,7.4, PBS) for 4 h at room temperature (RT). After washing, with TBST, slides were incubated overnight at 4 °C with anti-VDAC1 antibody against a sequence of 150–250 amino acids or against the VDAC1-N-terminus. Slides were then washed with TBST, followed by the appropriate secondary anti-HRP conjugated antibody for 2 h at RT. They were washed again with TBST and developed using enhanced chemiluminescence EZ-ECL (Biological Industries), according to the manufacturer’s instructions. The signal was captured in the dark using FUSION-FX (Vilber Lourmat) software.

Sequence	Spot intensity, detected using anti-N-terminus VDAC1
FTEDELPYDDCVFGGQRLTL [2G5]	+
VGKSGTEREFRGLGDCLVKITKSDG [1G4, array peptide from ANT3]	+++
MTEQAISFAKDFLAGGIAAAISKTA [1F12, array peptide from ANT3]	+
KTGPNLHGLFGRKTGQAPGYSYTAA [1D9, array peptide from cytochrome c]	+
IEDFKAKKKELEEIVQPIISKLYGS [2M14, array peptide from BiP1]	++
RYGRELRRMSDEFVDSFKKGLPRPK [1A13, array peptide from BAD]	+
NGKLVINGNPITIFQERDPSKIKWG [2B21, array peptide from GAPDH1]	+
GGGPTSSEQIMKTGALLLQGFIQDR [1A21, array peptide from BAX]	+
LVFHSFGGGTGSGFTSLLMERLSVD [2A3, array peptide from tubulin alpha 1b]	+++
PASTGAAKAVGKVIPELNGKLTGMA [2C13, array peptide from GAPDH1]	+
FVDWCPTGFKVGINYQPPTVVPGGD [2B2, array peptide from tubulin alpha 1b]	+
PLAESITDVLVRTKRDWLVKQRGWD [2E12, array peptide from Mcl-1]	++
EQGVLSFWRGNLANVIRYFPTQALN [1F19, array peptide from ANT3]	+++
GKEPAHLMSLFGGKPMIIYKGGTSR [2I13, array peptide from gelsolin isoform b]	+

Second part, the sequence after the results:

Spot intensity, detected using anti-N-terminus VDAC1	Sequence
++	ELEEIVQPIISKLYGSAGPPPTGEE [2M15, array peptide from BiP1]
+	SPPSTLTPDSRRVARPPPIGAEVPD [2D11, array peptide from Mcl-1]
+++	AKYDDIKKVVKQASEGPLKGILGYT [2C18, array peptide from GAPDH1]
+	MEVIRQVKGDLAFLNFQNNLQQTPL [2F6]
+++	IMGWTLDFLRERLLGWIQDQGGWGL [1B11, array peptide from BAX]
+++	MVVEHPEFLKAGKEPGLQIWRVEKF [2G8, array peptide from gelsolin isoform b]
++	VDCIVRIPKEQGVLSFWRGNLANVI [1F18, array peptide from ANT3]
+++	FPTQALNFAFKDKYKQIFLGGVDKH [1F21, array peptide from ANT3]
+	SPFRGRSRSAPPNLWAAQRYGRELR [1A11, array peptide from BAD]
++	TPPPAEEEEDELYRQSLEIISRYLR [2D22, array peptide from Mcl-1]
+	ITATQKTVDGPSGKLWRDGRGALQN [2C10, array peptide from GAPDH1]
+++	SILEIQKGVFEVKSTNGDTFLGGED [2N23, array peptide from HSP-70]

same assay, conditions: glass-bound peptide array incubated 4 h with purified VDAC1 (64 nM); antibody against VDAC1 amino acids 150-250; chemiluminescence

Sequence	Spot intensity, detected using anti-VDAC1 internal sequence
IEDFKAKKKELEEIVQPIISKLYGS [2M14, array peptide from BiP1]	++
LVFHSFGGGTGSGFTSLLMERLSVD [2A3, array peptide from tubulin alpha 1b]	+
AAAATTVAWYQVSPLAARLLYPYLA [1H10, array peptide from TSPO]	++
EQGVLSFWRGNLANVIRYFPTQALN [1F19, array peptide from ANT3]	+

Next, values leading:

Spot intensity, detected using anti-VDAC1 internal sequence	Sequence
+++	ELEEIVQPIISKLYGSAGPPPTGEE [2M15, array peptide from BiP1]
++	YKSEGTFGIHVAENPSIQLLEGNPG [1L13, array peptide from MAVS]
++	AKYDDIKKVVKQASEGPLKGILGYT [2C18, array peptide from GAPDH1]
+++	HVAENPSIQLLEGNPGPPADPDGGP [1L14, array peptide from MAVS]
+++	SILEIQKGVFEVKSTNGDTFLGGED [2N23, array peptide from HSP-70]

biological target: T1, purified VDAC1; experiment: Microscale thermophoresis (MST); format: binding; details: not given
Description: MST analysis was performed using a NanoTemper Monolith NT.115 apparatus as described previously. Briefly, purified VDAC1 was fluorescently labeled using a NanoTemper Protein labeling kit BLUE (L001, NanoTemper Technologies, Munich, Germany). A constant concentration of the protein (66 nM) was incubated with different concentrations of the indicated peptide in MST binding buffer (10 mM tricine-HCl, 100 mM NaCl, pH = 7.4) for 30 min at 37 °C in the dark. Afterwards, 3–5 µl of the samples were loaded into a monolith glass capillary (NanoTemper) and a thermophoresis analysis was performed (LED 80%, IR laser 80%).

Sequence	Kd
MVVEHPEFLKAGKEPGLQIWRVEKFRQIKIWFQNRRMKWKK [2G8-Antp]	5 µM

same assay, conditions: fluorescently labeled VDAC1 66 nM, peptide 2.5-30 µM, 30 min at 37 °C; read-out: Kd

Kd	Sequence
8 µM	NEFGYSNRVVDLMAHMASKE [2D1]
